Assay results as given in patent publication US11311520B2, “Substituted dihydroimidazopyridinediones as MKNK1 and MKNK2 inhibitors” (Bayer Pharma Aktiengesellschaft, priority 2017, dated 2022).
pIC50: −log10 of the molar value. Where a name gives a salt, the structure may show the parent alone.

These compounds were tested against human full-length MKNK1 (Homo sapiens (Human), UniProt Q9BUB5, T344D) (assay: MKNK1 kinase high ATP assay (TR-FRET)). Conditions: 2 mM ATP, 15 min preincubation with enzyme, GST-MKNK1 (T344D).
Sequence of human full-length MKNK1 (Q9BUB5 other isoform, or with tags, fused parts or gaps T344D): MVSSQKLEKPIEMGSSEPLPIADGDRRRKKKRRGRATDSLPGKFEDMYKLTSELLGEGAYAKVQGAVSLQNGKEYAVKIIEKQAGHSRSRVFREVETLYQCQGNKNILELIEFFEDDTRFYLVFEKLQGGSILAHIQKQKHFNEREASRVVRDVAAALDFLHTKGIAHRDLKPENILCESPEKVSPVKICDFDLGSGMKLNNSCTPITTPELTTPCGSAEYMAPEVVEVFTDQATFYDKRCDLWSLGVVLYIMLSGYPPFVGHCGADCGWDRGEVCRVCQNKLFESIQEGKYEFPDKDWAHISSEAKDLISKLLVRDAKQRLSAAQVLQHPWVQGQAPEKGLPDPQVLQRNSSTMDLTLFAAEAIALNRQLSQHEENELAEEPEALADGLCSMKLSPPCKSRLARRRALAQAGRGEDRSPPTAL
Assay type: biochemical
Protocol: MKNK1 Kinase High ATP Assay
MKNK1-inhibitory activity at high ATP of compounds of the present invention after their preincubation with MKNK1 was quantified employing the TR-FRET-based MKNK1 high ATP assay as described in the following paragraphs.
A recombinant fusion protein of Glutathione-S-Transferase (GST, N-terminally) and human full-length MKNK1 (amino acids 1-424 and T344D of accession number BAA 19885.1), expressed in insect cells using baculovirus expression system and purified via glutathione sepharose affinity chromatography, was purchased from Carna Biosciences (product no 02-145) and used as enzyme. As substrate for the kinase reaction the biotinylated peptide biotin-Ahx-IKKRKLTRRKSLKG (SEQ ID NO: 1) (C-terminus in amide form) was used, which can be purchased e.g. from the company Biosyntan (Berlin-Buch, Germany)
For the assay 50 nL of a 100 fold concentrated solution of the test compound in DMSO was pipetted into a black low volume 384 well microtiter plate (Greiner Bio-One, Frickenhausen, Germany), 2 μL of a solution of MKNK1 in aqueous assay buffer [50 mM HEPES pH 7.5, 5 mM MgCl2, 1.0 mM dithiothreitol, 0.005% (v/v) Nonidet-P40 (Sigma)] was added and the mixture was incubated for […] at 22° C. to allow pre-binding of the test compounds to the enzyme before the start of the kinase reaction. Then the kinase reaction was started by the addition of 3 μL of a solution of adenosine-tri-phosphate (ATP, 3.3 mM=>final conc. in the 5 μL assay volume is 2 mM) and substrate (0.1 μM=>final conc. in the 5 μL assay volume is 0.06 μM) in assay buffer and the resulting mixture was incubated for a reaction time of 30 min at 22° C. The concentration of MKNK1 was adjusted depending of the activity of the enzyme lot and was chosen appropriate to have the assay in the linear range, typical concentrations were in the range of 0.003 μg/mL. The reaction was stopped by the addition of 5 μL of a solution of TR-FRET detection reagents (5 nM streptavidine-XL665 [Cisbio Bioassays, Codolet, France] and 1 nM anti-ribosomal protein S6 (pSer236)-antibody from Invitrogen [#44921G] and 1 nM LANCE EU-W1024 labeled ProteinG [Perkin-Elmer, product no. AD0071]) in an aqueous EDTA-solution (100 mM EDTA, 0.1% (w/v) bovine serum albumin in 50 mM HEPES pH 7.5).
The resulting mixture was incubated for 1 h at 22° C. to allow the formation of complex between the phosphorylated biotinylated peptide and the detection reagents. Subsequently the amount of phosphorylated substrate was evaluated by measurement of the resonance energy transfer from the Eu-chelate to the streptavidine-XL. Therefore, the fluorescence emissions at 620 nm and 665 nm after excitation at 350 nm were measured in a TR-FRET reader, e.g. a Rubystar (BMG Labtechnologies, Offenburg, Germany) or a Viewlux (Perkin-Elmer). The ratio of the emissions at 665 nm and at […] was taken as the measure for the amount of phosphorylated substrate. The data were normalised (enzyme reaction without inhibitor=0% inhibition, all other assay components but no enzyme=100% inhibition).
CCCNC(=O)Nc1nccc(Nc2cc(C)c3n(c2=O)C2(CCCCC2)NC3=O)n1 [Example 23, 1-{4-[(8′-Methyl-1′,5′-dioxo-1′,5′-dihydro-2′H-spiro[cyclohexane-1,3′-imidazo[1,5-a]pyridin]-6′-yl)amino]pyrimidin-2-yl}-3-propylurea] was tested, and the pIC50 was 6.47.
Compound Cc1cc(Nc2ncnc3[nH]cnc23)c(=O)n2c1C(=O)NC21CCCCC1 [Example 24, 8′-methyl-6′-(9H-purin-6-ylamino)-2′H-spiro[cyclohexane-1,3′-imidazo[1,5-a]pyridine]-1′,5′-dione] has a pIC50 of 8.82.
Cc1cc(Nc2ncnc3sc(C(=O)NCCN(C)C)cc23)c(=O)n2c1C(=O)NC21CCCCC1 [Example 25, N-[2-(Dimethylamino)ethyl]-4-[(8′-methyl-1′,5′-dioxo-1′,5′-dihydro-2′H-spiro[cyclohexane-1,3′-imidazo[1,5-a]pyridin]-6′-yl)amino]thieno[2,3-d]pyrimidine-6-carboxamide] gave a pIC50 of 8.72.
Cc1cc(Nc2ncnc3sc(C(=O)N4CC(C#N)C4)cc23)c(=O)n2c1C(=O)NC21CCCCC1 [Example 26, 1-({4-[(8′-Methyl-1′,5′-dioxo-1′,5′-dihydro-2′H-spiro[cyclohexane-1,3′-imidazo[1,5-a]pyridin]-6′-yl)amino]thieno[2,3-d]pyrimidin-6-yl}carbonyl)azetidine-3-carbonitrile] was tested, and the pIC50 was 8.30.
In the case of Cc1cc(Nc2ncnc3sc(C(=O)N4CC(NC(=O)OC(C)(C)C)C4)cc23)c(=O)n2c1C(=O)NC21CCCCC1 [Example 27, tert-Butyl [1-({4-[(8′-methyl-1′,5′-dioxo-1′,5′-dihydro-2′H-spiro[cyclohexane-1,3′-imidazo[1,5-a]pyridin]-6′-yl)amino]thieno[2,3-d]pyrimidin-6-yl}carbonyl)azetidin-3-yl]carbamate], the pIC50 was 8.40.
Compound Cc1cc(Nc2ncnc3sc(C(=O)N4CC(N)C4)cc23)c(=O)n2c1C(=O)NC21CCCCC1 [Example 28, 6′-({6-[(3-Aminoazetidin-1-yl)carbonyl]thieno[2,3-d]pyrimidin-4-yl}amino)-8′-methyl-2′H-spiro[cyclohexane-1,3′-imidazo[1,5-a]pyridine]-1′,5′-dione] has a pIC50 of 9.22.
For Cc1cc(Nc2ncnc3sc(C(=O)N4CC[C@@H](N(C)C)C4)cc23)c(=O)n2c1C(=O)NC21CCCCC1 [Example 29, 6′-[(6-{[(3R)-3-(Dimethylamino)pyrrolidin-1-yl]carbonyl}thieno[2,3-d]pyrimidin-4-yl)amino]-8′-methyl-2′H-spiro[cyclohexane-1,3′-imidazo[1,5-a]pyridine]-1′,5′-dione], the pIC50 was 8.54.
For Cc1cc(Nc2ncnc3sc(C(=O)N4CC[C@H](N(C)C)C4)cc23)c(=O)n2c1C(=O)NC21CCCCC1 [Example 30, 6′-[(6-{[(3S)-3-(Dimethylamino)pyrrolidin-1-yl]carbonyl}thieno[2,3-d]pyrimidin-4-yl)amino]-8′-methyl-2′H-spiro[cyclohexane-1,3′-imidazo[1,5-a]pyridine]-1′,5′-dione], the pIC50 was 8.49.

Same assay, conditions: 2 mM ATP, 15 min preincubation with enzyme, GST-MKNK1 (T344D), hydrochloride
Work on Cc1cc(Nc2ncnc3sccc23)c(=O)n2c1C(=O)NC21CCCCC1 [Example 31, 8′-Methyl-6′-(thieno[2,3-d]pyrimidin-4-ylamino)-2′H-spiro[cyclohexane-1,3′-imidazo[1,5-a]pyridine]-1′,5′-dione hydrochloride] yielded a pIC50 of 7.77.
For Cc1cc(Nc2ncnc3sc(C(=O)N(C)C)cc23)c(=O)n2c1C(=O)NC21CCCCC1 [Example 33, N,N-Dimethyl-4-[(8′-methyl-1′,5′-dioxo-1′,5′-dihydro-2′H-spiro[cyclohexane-1,3′-imidazo[1,5-a]pyridin]-6′-yl)amino]thieno[2,3-d]pyrimidine-6-carboxamide hydrochloride], the pIC50 was 7.15.
Work on Cc1cc(Nc2ncnc3[nH]ncc23)c(=O)n2c1C(=O)NC21CCCCC1 [Example 34, 8′-Methyl-6′-(1H-pyrazolo[3,4-d]pyrimidin-4-ylamino)-2′H-spiro[cyclohexane-1,3′-imidazo[1,5-a]pyridine]-1′,5′-dione hydrochloride] yielded a pIC50 of 8.09.
